One data set concerns recombinant human AMPK. As to the kind of experiment: Recombinant AMPK activity assay (Cyclex kit). Format: biochemical.
Details: not given
An excerpt:
Guanides and biguanides, such as metformin, are effective as antidiabetic agents linked to their AMPK activating properties (Hardie et al., Chem Biol. 2012, […]; 1222-1236). Guanidine-containing analogs in certain embodiments were screened for activation of recombinant human AMPK, using an assay kit (Cyclex, Nagona, Japan), as illustrated in FIG. 8.
Activators of AMP-activated protein kinase (AMPK), such as guanidines of biguanides such as metformin are useful for the treatment of diabetes owing to their AMPK activating property (Hardie, et al., Chem & Biol 2012, 19(10); 1222-1236). Guanidine analogues of certain embodiments were screened for AMPK activation by using a recombinant AMPK activity assay.
As to `Cc1c(C(=O)NN2CCCCC2)nn(-c2ccc(Cl)cc2Cl)c1-c1ccc(Cl)cc1` [rimonabant], the “effect on AMPK activity” value is “no effect”.

The data set is the same for the next values; noted with them: 1 μM.
Turning to `Cc1c(C(=O)NN2CCCCC2)nn(-c2ccc(Cl)cc2Cl)c1-c1ccc(Cl)cc1` [rimonabant], the “effect on AMPK activity” value is recorded as “no effect”.

Tested on in the next data set: not listed separately
As to the kind of experiment: Tissue levels (brain and plasma) after administration to mice. The settings on record: 1 hour after administration of 10 mg/kg to mice.
With `CC(=N)N/C(=N\S(=O)(=O)c1ccc(Cl)cc1)N1C[C@H](c2ccccc2)C(c2ccc(Cl)cc2)=N1` [Compound 2E1], the “plasma levels, oral versus i.p. administration” value was “comparable after oral or i.p. administration”.

In another data set the test system is liver fibrosis.
Experiment: not given
The settings on record: Teixeira-Clerc, Nature Med 2006; cited from earlier work.
Take `Cc1c(C(=O)NN2CCCCC2)nn(-c2ccc(Cl)cc2Cl)c1-c1ccc(Cl)cc1` [rimonabant]: the anti-fibrotic effect result was “anti-fibrotic effect”.

The test system of another data set is CCl4-induced liver fibrosis. Nature of the data set: CCl4-induced liver fibrosis model in mice. It is filed as in vivo, mouse. Conditions: 10 mg/kg/day orally for 4 weeks. The protocol:
CCl4-induced liver fibrosis was generated by intraperitoneal injection of CCL4 (1 ml/kg, diluted 1:10 corn oil), twice weekly for 8 weeks. […] Data represent mean±SEM from 7-8 mice per group.*P<0.05 relative to control. ^#indicates significant treatment effect (P<0.05) relative to CCl4-treated vehicle group.
Fibrosis results from excessive extracellular matrix deposition by myofibroblasts accompanying chronic inflammation and wound healing, and is a key pathogenic process in many organs, including kidneys, lung, and liver.
Regarding `CC(=N)N/C(=N\S(=O)(=O)c1ccc(Cl)cc1)N1C[C@H](c2ccccc2)C(c2ccc(Cl)cc2)=N1` [Compound 2E1], the “liver fibrosis / collagen deposition by Sirius Red and Masson's trichrome staining” value is listed as “more effective than rimonabant”.

The data set is the same for the next values; noted with them: 10 mg/kg/day orally for 4 weeks, liver.
`CC(=N)N/C(=N\S(=O)(=O)c1ccc(Cl)cc1)N1C[C@H](c2ccccc2)C(c2ccc(Cl)cc2)=N1` [Compound 2E1]: the “CCl4-induced increase in immunoreactive iNOS” value was “dramatically attenuated”.

The same data set, now with this note: versus rimonabant.
As for `CC(=N)N/C(=N\S(=O)(=O)c1ccc(Cl)cc1)N1C[C@H](c2ccccc2)C(c2ccc(Cl)cc2)=N1` [Compound 2E1], the “anti-fibrotic efficacy in liver fibrosis (overall)” value is listed as “higher anti-fibrotic efficacy than rimonabant”.

The target of the next data set is CB1 (Mus musculus, UniProt P47746). Nature of the data set: CB1 radioligand displacement assay in mouse brain membranes. It is filed as binding. Further details: radioligand displacement assay in mouse brain membranes; from tissue; host or cells: mouse brain membranes.
Chain of CB1 (P47746 whole entry): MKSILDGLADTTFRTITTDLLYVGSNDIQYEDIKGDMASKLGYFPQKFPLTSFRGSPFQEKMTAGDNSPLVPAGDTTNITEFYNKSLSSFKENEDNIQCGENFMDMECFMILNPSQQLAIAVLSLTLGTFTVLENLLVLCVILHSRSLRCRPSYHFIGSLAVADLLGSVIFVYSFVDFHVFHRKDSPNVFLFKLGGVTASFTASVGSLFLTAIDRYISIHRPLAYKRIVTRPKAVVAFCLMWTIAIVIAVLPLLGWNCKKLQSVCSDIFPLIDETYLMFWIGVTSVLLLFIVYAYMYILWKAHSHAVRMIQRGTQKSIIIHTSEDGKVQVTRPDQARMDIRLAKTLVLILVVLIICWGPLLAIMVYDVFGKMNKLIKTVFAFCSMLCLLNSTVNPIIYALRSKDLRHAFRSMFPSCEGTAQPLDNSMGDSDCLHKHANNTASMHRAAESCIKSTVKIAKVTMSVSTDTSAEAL
Details: not given
For the molecule `CC(C)(C)OC(=O)N1CCN(/C(N)=N/C(=N/S(=O)(=O)c2ccc(Cl)cc2)N2CC(c3ccccc3)C(c3ccc(Cl)cc3)=N2)CC1` (stereo not shown) [Compound 59], the Ki was 387 nM.

The same data set, now with this note: Table 1; read-out: Ki CB1.
In the case of `CC(C)(C)C(N)=NC(=NS(=O)(=O)c1ccc(Cl)cc1)N1CC(c2ccccc2)C(c2ccc(Cl)cc2)=N1` (stereo not shown) [Compound 3], the Ki was 7 nM.

The same data set, now with this note: Table 2; read-out: Ki CB1.
Consider `NC(=NC(=NS(=O)(=O)c1ccc(Cl)cc1)N1CC(c2ccccc2)C(c2ccc(Cl)cc2)=N1)c1ccc(Br)cc1` (stereo not shown) [Compound 20], for which the Ki worked out at 27 nM. Still for that read-out and setting: with `COCCN(C)/C(N)=N/C(=N/S(=O)(=O)c1ccc(Cl)cc1)N1CC(c2ccccc2)C(c2ccc(Cl)cc2)=N1` (stereo not shown) [Compound 43] the figure was 908 nM; with `CON(C)/C(N)=N/C(=N/S(=O)(=O)c1ccc(Cl)cc1)N1CC(c2ccccc2)C(c2ccc(Cl)cc2)=N1` (stereo not shown) [Compound 42], 23 nM. For `CC(N)=NC(=NS(=O)(=O)c1ccc(OC(F)(F)F)cc1)N1CC(c2ccccc2)C(c2ccc(Cl)cc2)=N1` (stereo not shown) [Compound 97], the Ki was found to be 138 nM. Turning to `NC(=NC(=NS(=O)(=O)c1ccc(C(F)(F)F)cc1)N1CC(c2ccccc2)C(c2ccc(Cl)cc2)=N1)c1ccc(F)cc1` (stereo not shown) [Compound 79], the Ki was found to be 9 nM.

Consider `NC(=NC(=NS(=O)(=O)c1ccc(Cl)cc1)N1CC(c2ccccc2)C(c2ccc(Cl)cc2)=N1)SCCCc1ccccc1` (stereo not shown) [Compound 26], for which the Ki was found to be 190 nM. `CC(N)=NC(=NS(=O)(=O)c1ccc(F)cc1)N1CC(c2ccccc2)C(c2ccc(Cl)cc2)=N1` (stereo not shown) [Compound 27]: the Ki is 60 nM. `NC(=NC(=NS(=O)(=O)c1ccc(I)cc1)N1CC(c2ccccc2)C(c2ccc(Cl)cc2)=N1)c1ccc(F)cc1F` (stereo not shown) [Compound 88]: the Ki turned out to be 4.8 nM. Consider `Cc1cc(C)n(C(N)=NC(=NS(=O)(=O)c2ccc(Cl)cc2)N2CC(c3ccccc3)C(c3ccc(Cl)cc3)=N2)n1` (stereo not shown) [Compound 69], for which the Ki was 10 nM. The same measure, in the same setting: the value for `NC(=NC(=NS(=O)(=O)c1ccc(Cl)cc1)N1CC(c2ccccc2)C(c2ccc(Cl)cc2)=N1)c1ccc(F)cc1` (stereo not shown) [Compound 10] was 7.9 nM. Turning to `COc1cccc(C(N)=NC(=NS(=O)(=O)c2ccc(Cl)cc2)N2CC(c3ccccc3)C(c3ccc(Cl)cc3)=N2)c1` (stereo not shown) [Compound 17], the Ki stood at 86 nM. In the case of `COc1ccc(S(=O)(=O)N=C(N=C(C)N)N2CC(c3ccccc3)C(c3ccc(Cl)cc3)=N2)cc1` (stereo not shown) [Compound 32], the Ki came to 182 nM.

For `CC(=O)N/C(N)=N/C(=N/S(=O)(=O)c1ccc(C(C)(C)C)cc1)N1CC(c2ccccc2)C(c2ccc(Cl)cc2)=N1` (stereo not shown) [Compound 91], the Ki came out at 1.3 nM. On the same count and under the same terms, with `N/C(=N/C(=N\S(=O)(=O)c1ccc(Cl)cc1)N1CC(c2ccccc2)C(c2ccc(Cl)cc2)=N1)c1ccc(F)cc1` (single isomer, unassigned) [Compound 10E2] the figure was 524 nM; with `N/C(=N\C(=N\S(=O)(=O)c1ccc(Cl)cc1)N1CC(c2ccccc2)C(c2ccc(Cl)cc2)=N1)NC1CCCCC1` (stereo not shown) [Compound 57], 419 nM. Consider `CC(N)=NC(=NS(=O)(=O)c1ccc(C(C)(C)C)cc1)N1CC(c2ccccc2)C(c2ccc(Cl)cc2)=N1` (stereo not shown) [Compound 98], for which the inhibition constant Ki stood at 48 nM. On to `NC(=NC(=NS(=O)(=O)c1ccc(Cl)cc1)N1CC(c2ccccc2)C(c2ccc(Cl)cc2)=N1)SCCc1ccccc1` (stereo not shown) [Compound 25], for which the Ki stood at 287 nM.

Turning to `COCCN/C(N)=N/C(=N/S(=O)(=O)c1ccc(Cl)cc1)N1CC(c2ccccc2)C(c2ccc(Cl)cc2)=N1` (stereo not shown) [Compound 40], the Ki stood at 848 nM. In the case of `CN1CCN(/C(N)=N/C(=N/S(=O)(=O)c2ccc(Cl)cc2)N2CC(c3ccccc3)C(c3ccc(Cl)cc3)=N2)CC1` (stereo not shown) [Compound 54], the Ki stood at 309 nM. For the molecule `CC(C)(C)C(N)=NC(=NS(=O)(=O)c1ccc(Cl)cc1)N1C[C@H](c2ccccc2)C(c2ccc(Cl)cc2)=N1` [Compound 3E1], the Ki was found to be 36 nM. On to `NC(=NC(=NS(=O)(=O)c1ccc(C(F)(F)F)cc1)N1CC(c2ccccc2)C(c2ccc(Cl)cc2)=N1)c1ccc(F)cc1F` (stereo not shown) [Compound 80], for which the Ki was determined as 6.6 nM. `CC(N)=NC(=NS(=O)(=O)c1ccc(C#N)cc1)N1CC(c2ccccc2)C(c2ccc(Cl)cc2)=N1` (stereo not shown) [Compound 100]: the Ki amounted to 16 nM. `NC(=NC(=NS(=O)(=O)c1ccc(Cl)cc1)N1CC(c2ccccc2)C(c2ccc(Cl)cc2)=N1)c1cccc(Br)c1` (stereo not shown) [Compound 14]: the Ki came to 56 nM. In the case of `NC(=NC(=NS(=O)(=O)c1ccc(Cl)cc1)N1CC(c2ccccc2)C(c2ccc(Cl)cc2)=N1)C12CC3CC(CC(C3)C1)C2` (stereo not shown) [Compound 7], the Ki was found to be 15 nM.

As to `NC(=NC(=NS(=O)(=O)c1ccc(C(F)(F)F)cc1)N1CC(c2ccccc2)C(c2ccc(Cl)cc2)=N1)NC(=O)/C=C/c1ccccc1` (stereo not shown) [Compound 101], the Ki stood at 5.5 nM. Same read-out and setting: with `N/C(=N\C(=N\S(=O)(=O)c1ccc(Cl)cc1)N1CC(c2ccccc2)C(c2ccc(Cl)cc2)=N1)N1CCCCC1` (stereo not shown) [Compound 53] the figure was 276 nM. Regarding `CC(C)(C)C(N)=NC(=NS(=O)(=O)c1ccc(Cl)cc1)N1CC(c2ccccc2)C(c2ccc(Cl)cc2)=N1` (stereo not shown) [Compound 3], the Ki was found to be 7 nM.

With `COCCN(CCOC)/C(N)=N/C(=N/S(=O)(=O)c1ccc(Cl)cc1)N1CC(c2ccccc2)C(c2ccc(Cl)cc2)=N1` (stereo not shown) [Compound 39], the Ki is 425 nM. With `CN(Cc1cccnc1)C(N)=NC(=NS(=O)(=O)c1ccc(Cl)cc1)N1CC(c2ccccc2)C(c2ccc(Cl)cc2)=N1` (stereo not shown) [Compound 48], the Ki was found to be 147 nM.

On to `CC(C)C(N)=NC(=NS(=O)(=O)c1ccc(Cl)cc1)N1CC(c2ccccc2)C(c2ccc(Cl)cc2)=N1` (stereo not shown) [Compound 5], for which the Ki was found to be 29 nM.

Take `NC(=NC(=NS(=O)(=O)c1ccc(I)cc1)N1CC(c2ccccc2)C(c2ccc(Cl)cc2)=N1)c1ccc(Cl)cc1` (stereo not shown) [Compound 86]: the Ki worked out at 11 nM.

As for `CC(=O)N/C(N)=N/C(=N/S(=O)(=O)c1ccc(OC(F)(F)F)cc1)N1CC(c2ccccc2)C(c2ccc(Cl)cc2)=N1` (stereo not shown) [Compound 90], the Ki stood at 1.8 nM. Take `CC(C)SC(N)=NC(=NS(=O)(=O)c1ccc(Cl)cc1)N1CC(c2ccccc2)C(c2ccc(Cl)cc2)=N1` (stereo not shown) [Compound 23]: the inhibition constant Ki stood at 166 nM. Consider `NC(=NC(=NS(=O)(=O)c1ccc(Cl)cc1)N1CC(c2ccccc2)C(c2ccc(Cl)cc2)=N1)c1cccs1` (stereo not shown) [Compound 16], for which the Ki was determined as 60 nM.

The values above are taken from patent US20190352268A1, “CANNABINOID RECEPTOR MEDIATING COMPOUNDS” (The USA, as represented by the Secretary, Department of …, priority 2015, published 2019).
